The values that follow come from PubChem BioAssay AID1259407 (Chemical Carcinogenesis Research Information System (CCRIS), 2018).

The data set concerns CCRIS mutagenicity, Ames/micronucleus/aberration tests. Put plainly: CCRIS mutagenicity studies.
The mark [1] stands for this setting: Test System: AMES SALMONELLA TYPHIMURIUM, Strain/Indicator: TA100, Metabolic Activation: NONE, Method: STANDARD PLATE.
Where [2] appears, read: Test System: AMES SALMONELLA TYPHIMURIUM, Strain/Indicator: TA98, Metabolic Activation: NONE, Method: PREINCUBATION
Setting [3] is: Test System: AMES SALMONELLA TYPHIMURIUM, Strain/Indicator: TA100, Metabolic Activation: NONE, Method: PREINCUBATION
The mark [4] stands for this setting: Test System: AMES SALMONELLA TYPHIMURIUM, Strain/Indicator: TA102, Metabolic Activation: NONE, Method: PREINCUBATION

The source made the active and inactive calls. How the calls were made is not given here.

On to `CCCCCCCCCC/C=C/C1CC(=O)OC1=O` (configuration not stated), for which the mutagenic call was “inactive; negative” (Test System: AMES SALMONELLA TYPHIMURIUM, Strain/Indicator: TA98, Metabolic Activation: HAMSTER, LIVER, S-9, AROCLOR 1254, Method: STANDARD PLATE); “inactive; negative” (Test System: AMES SALMONELLA TYPHIMURIUM, Strain/Indicator: TA98, Metabolic Activation: NONE, Method: STANDARD PLATE); “inactive; negative” (Test System: AMES SALMONELLA TYPHIMURIUM, Strain/Indicator: TA98, Metabolic Activation: RAT, LIVER, S-9, AROCLOR 1254, Method: STANDARD PLATE); “inactive; negative” (Test System: AMES SALMONELLA TYPHIMURIUM, Strain/Indicator: TA100, Metabolic Activation: HAMSTER, LIVER, S-9, AROCLOR 1254, Method: STANDARD PLATE); “inactive; negative” under setting [1]; “inactive; negative” (Test System: AMES SALMONELLA TYPHIMURIUM, Strain/Indicator: TA100, Metabolic Activation: RAT, LIVER, S-9, AROCLOR 1254, Method: STANDARD PLATE). Besides, the mutagenic call by setting is: (Test System: AMES SALMONELLA TYPHIMURIUM, Strain/Indicator: TA1535, Metabolic Activation: HAMSTER, LIVER, S-9, AROCLOR 1254, Method: STANDARD PLATE) “inactive; negative”; (Test System: AMES SALMONELLA TYPHIMURIUM, Strain/Indicator: TA1535, Metabolic Activation: NONE, Method: STANDARD PLATE) “inactive; negative”; (Test System: AMES SALMONELLA TYPHIMURIUM, Strain/Indicator: TA1535, Metabolic Activation: RAT, LIVER, S-9, AROCLOR 1254, Method: STANDARD PLATE) “inactive; negative”; (Test System: AMES SALMONELLA TYPHIMURIUM, Strain/Indicator: TA1537, Metabolic Activation: HAMSTER, LIVER, S-9, AROCLOR 1254, Method: STANDARD PLATE) “inactive; negative”; (Test System: AMES SALMONELLA TYPHIMURIUM, Strain/Indicator: TA1537, Metabolic Activation: NONE, Method: STANDARD PLATE) “inactive; negative”; (Test System: AMES SALMONELLA TYPHIMURIUM, Strain/Indicator: TA1537, Metabolic Activation: RAT, LIVER, S-9, AROCLOR 1254, Method: STANDARD PLATE) “inactive; negative”. Moreover, the mutagenic call (Test System: AMES SALMONELLA TYPHIMURIUM, Strain/Indicator: TA1538, Metabolic Activation: HAMSTER, LIVER, S-9, AROCLOR 1254, Method: STANDARD PLATE) was “inactive; negative”; the mutagenic call (Test System: AMES SALMONELLA TYPHIMURIUM, Strain/Indicator: TA1538, Metabolic Activation: NONE, Method: STANDARD PLATE) was “inactive; negative”; the mutagenic call (Test System: AMES SALMONELLA TYPHIMURIUM, Strain/Indicator: TA1538, Metabolic Activation: RAT, LIVER, S-9, AROCLOR 1254, Method: STANDARD PLATE) was “inactive; negative”; the mutagenic call (Test System: MOUSE LYMPHOMA, Strain/Indicator: L5178Y (TK+/TK-), Metabolic Activation: NONE, Method: SUSPENSION/PLATE) is “inactive; negative. reevaluation of results: inconclusive”; the mutagenic call (Test System: MOUSE LYMPHOMA, Strain/Indicator: L5178Y (TK+/TK-), Metabolic Activation: RAT, LIVER, S-9, AROCLOR 1254, Method: SUSPENSION/PLATE) is “inactive; negative. reevaluation of results: negative”.

Turning to `CCc1cccc(CC)c1N=O`, the mutagenic call is, setting by setting: under setting [2], “active; positive”; (Test System: AMES SALMONELLA TYPHIMURIUM, Strain/Indicator: TA98, Metabolic Activation: RAT, LIVER, MICROSOMES, PHENOBARBITAL, Method: PREINCUBATION) “active; positive”; (Test System: AMES SALMONELLA TYPHIMURIUM, Strain/Indicator: TA100, Metabolic Activation: RAT, LIVER, MICROSOMES, PHENOBARBITAL, Method: PREINCUBATION) “active; positive”.

As to `C[C@@H](C(=O)O)N(N=[N+]=[N-])C(=O)OC(C)(C)C`, under setting [1], the mutagenic call is “active; positive”.

On to `O=C1CN(CCN2CC(=O)N(CN3CCOCC3)C(=O)C2)CC(=O)N1CN1CCOCC1`, for which the mutagenic call was “inactive; negative” (Test System: AMES SALMONELLA TYPHIMURIUM, Strain/Indicator: TA97, Metabolic Activation: NONE, Method: PREINCUBATION); “inactive; negative” (Test System: AMES SALMONELLA TYPHIMURIUM, Strain/Indicator: TA97, Metabolic Activation: S-9, Method: PREINCUBATION); “active; positive” under setting [2]; “inactive; negative” (Test System: AMES SALMONELLA TYPHIMURIUM, Strain/Indicator: TA98, Metabolic Activation: S-9, Method: PREINCUBATION); “inactive; negative” under setting [3]; “inactive; negative” (Test System: AMES SALMONELLA TYPHIMURIUM, Strain/Indicator: TA100, Metabolic Activation: S-9, Method: PREINCUBATION). The mutagenic call under setting [4] is “active; positive” and the mutagenic call (Test System: AMES SALMONELLA TYPHIMURIUM, Strain/Indicator: TA102, Metabolic Activation: S-9, Method: PREINCUBATION) is “inactive; negative”.

Take `O=C(N=c1sn(C(=O)c2ccccc2[N+](=O)[O-])c2ccc([N+](=O)[O-])cc12)c1ccccc1[N+](=O)[O-]`: the mutagenic call (Test System: AMES SALMONELLA TYPHIMURIUM, Strain/Indicator: TA100, Metabolic Activation: S-9, Method: STANDARD PLATE) is “active; positive”.

Regarding `N[C@@H](CSc1c(Cl)c(Cl)c(Cl)c(Cl)c1Cl)C(=O)O`, the mutagenic call by setting is: under setting [2], “inactive; negative”; (Test System: AMES SALMONELLA TYPHIMURIUM, Strain/Indicator: TA98, Metabolic Activation: RAT, LIVER OR KIDNEY, MICROSOMES, Method: PREINCUBATION) “inactive; negative”; under setting [3], “inactive; negative”; (Test System: AMES SALMONELLA TYPHIMURIUM, Strain/Indicator: TA100, Metabolic Activation: RAT, LIVER OR KIDNEY, MICROSOMES, Method: PREINCUBATION) “inactive; negative”; under setting [4], “inactive; negative”; (Test System: AMES SALMONELLA TYPHIMURIUM, Strain/Indicator: TA102, Metabolic Activation: RAT, LIVER OR KIDNEY, MICROSOMES, Method: PREINCUBATION) “inactive; negative”. Further, the mutagenic call reads like this: (Test System: AMES SALMONELLA TYPHIMURIUM, Strain/Indicator: TA2638, Metabolic Activation: NONE, Method: PREINCUBATION) “inactive; negative”; (Test System: AMES SALMONELLA TYPHIMURIUM, Strain/Indicator: TA2638, Metabolic Activation: RAT, LIVER OR KIDNEY, MICROSOMES, Method: PREINCUBATION) “inactive; negative”.

For the compound `N#CCBr`, the mutagenic call is, setting by setting: (Test System: AMES SALMONELLA TYPHIMURIUM, Strain/Indicator: TA98, Metabolic Activation: HAMSTER, LIVER, S-9, AROCLOR 1254 (10%), Method: PREINCUBATION) “inactive; negative”; under setting [2], “inactive; negative”; (Test System: AMES SALMONELLA TYPHIMURIUM, Strain/Indicator: TA98, Metabolic Activation: RAT, LIVER, S-9, AROCLOR 1254 (10%), Method: PREINCUBATION) “inactive; negative”; (Test System: AMES SALMONELLA TYPHIMURIUM, Strain/Indicator: TA100, Metabolic Activation: HAMSTER, LIVER, S-9, AROCLOR 1254 (10%), Method: PREINCUBATION) “inactive; negative”; (Test System: AMES SALMONELLA TYPHIMURIUM, Strain/Indicator: TA100, Metabolic Activation: NONE, Method: FLUCTUATION TEST) “inactive; negative”; under setting [3], “inactive; negative”. Further, the mutagenic call is “inactive; negative” (Test System: AMES SALMONELLA TYPHIMURIUM, Strain/Indicator: TA100, Metabolic Activation: RAT, LIVER, S-9, AROCLOR 1254 (10%), Method: PREINCUBATION); “active; positive” (Test System: AMES SALMONELLA TYPHIMURIUM, Strain/Indicator: TA100, Metabolic Activation: RAT, LIVER, S-9, AROCLOR 1254, Method: FLUCTUATION TEST); “inactive; negative” (Test System: AMES SALMONELLA TYPHIMURIUM, Strain/Indicator: TA1535, Metabolic Activation: HAMSTER, LIVER, S-9, AROCLOR 1254 (10%), Method: PREINCUBATION); “inactive; negative” (Test System: AMES SALMONELLA TYPHIMURIUM, Strain/Indicator: TA1535, Metabolic Activation: NONE, Method: PREINCUBATION); “inactive; negative” (Test System: AMES SALMONELLA TYPHIMURIUM, Strain/Indicator: TA1535, Metabolic Activation: RAT, LIVER, S-9, AROCLOR 1254 (10%), Method: PREINCUBATION); “inactive; negative” (Test System: AMES SALMONELLA TYPHIMURIUM, Strain/Indicator: TA1537, Metabolic Activation: HAMSTER, LIVER, S-9, AROCLOR 1254 (10%), Method: PREINCUBATION). The mutagenic call (Test System: AMES SALMONELLA TYPHIMURIUM, Strain/Indicator: TA1537, Metabolic Activation: NONE, Method: PREINCUBATION) was “inactive; negative” and the mutagenic call (Test System: AMES SALMONELLA TYPHIMURIUM, Strain/Indicator: TA1537, Metabolic Activation: RAT, LIVER, S-9, AROCLOR 1254 (10%), Method: PREINCUBATION) is “inactive; negative”.
